Columns and labels:
Polyphenol oxidase 2 [1] = target: T1, Polyphenol oxidase 2 (Agaricus bisporus, UniProt O42713); assay: Cresolase Activity Assay; settings: pH 6.8; 20 °C
T1 sequence (O42713 whole entry): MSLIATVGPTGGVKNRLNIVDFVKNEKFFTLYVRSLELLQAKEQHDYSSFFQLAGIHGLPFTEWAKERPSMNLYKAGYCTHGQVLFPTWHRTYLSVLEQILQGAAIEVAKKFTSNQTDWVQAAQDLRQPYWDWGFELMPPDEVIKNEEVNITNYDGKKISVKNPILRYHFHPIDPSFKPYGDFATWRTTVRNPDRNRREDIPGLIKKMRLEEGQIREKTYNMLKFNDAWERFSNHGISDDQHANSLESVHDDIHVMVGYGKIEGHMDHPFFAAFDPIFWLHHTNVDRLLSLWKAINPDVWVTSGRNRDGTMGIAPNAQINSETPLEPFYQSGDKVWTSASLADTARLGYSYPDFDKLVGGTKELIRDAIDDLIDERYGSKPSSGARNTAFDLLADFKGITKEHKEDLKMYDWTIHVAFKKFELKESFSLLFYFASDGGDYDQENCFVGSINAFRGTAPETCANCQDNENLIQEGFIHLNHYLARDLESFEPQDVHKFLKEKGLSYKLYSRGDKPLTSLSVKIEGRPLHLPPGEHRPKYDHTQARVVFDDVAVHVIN
Method: (§1) Kinetic assay of catecholase and cresolase activities was carried out through depletion of MeBACat and MePAPh for 1 or 2 min with enzyme concentrations of 11.11 and 112.68 ug/mL at wavelenghts of 473 nm and 352 nm using a Cary spectrophotometer, 100 Biomodel with jacketed cell holders.

Polyphenol oxidase 2 [2] = target: T1, Polyphenol oxidase 2; assay: Catecholase Activity Assay; settings: pH 6.8; 20 °C
Method: as §1

| SMILES | Ki (Polyphenol oxidase 2 [1]) [µM] | Ki (Polyphenol oxidase 2 [2]) [µM] |
| --- | --- | --- |
| CC(C)COC(=S)[S][Na] [Iso-butyl xanthate, II] | 7.2 | 21.8 |
| CC(C)CCOC(=S)[S][Na] [Iso-pentyl xanthate, III] | 6.1 | 42.2 |
| CC(C)OC(=S)[S][Na] [Iso-propyl xanthate, I] | 9.8 | 12.9 |
